In patent US20230167073A1 (Teijin Pharma Limited, priority 2020, published 2023):

Biological target: T1, Human TRPC6 (Homo sapiens, UniProt Q9Y210)
T1 construct: expressed in transfected cells
T1 sequence (Q9Y210 1-931): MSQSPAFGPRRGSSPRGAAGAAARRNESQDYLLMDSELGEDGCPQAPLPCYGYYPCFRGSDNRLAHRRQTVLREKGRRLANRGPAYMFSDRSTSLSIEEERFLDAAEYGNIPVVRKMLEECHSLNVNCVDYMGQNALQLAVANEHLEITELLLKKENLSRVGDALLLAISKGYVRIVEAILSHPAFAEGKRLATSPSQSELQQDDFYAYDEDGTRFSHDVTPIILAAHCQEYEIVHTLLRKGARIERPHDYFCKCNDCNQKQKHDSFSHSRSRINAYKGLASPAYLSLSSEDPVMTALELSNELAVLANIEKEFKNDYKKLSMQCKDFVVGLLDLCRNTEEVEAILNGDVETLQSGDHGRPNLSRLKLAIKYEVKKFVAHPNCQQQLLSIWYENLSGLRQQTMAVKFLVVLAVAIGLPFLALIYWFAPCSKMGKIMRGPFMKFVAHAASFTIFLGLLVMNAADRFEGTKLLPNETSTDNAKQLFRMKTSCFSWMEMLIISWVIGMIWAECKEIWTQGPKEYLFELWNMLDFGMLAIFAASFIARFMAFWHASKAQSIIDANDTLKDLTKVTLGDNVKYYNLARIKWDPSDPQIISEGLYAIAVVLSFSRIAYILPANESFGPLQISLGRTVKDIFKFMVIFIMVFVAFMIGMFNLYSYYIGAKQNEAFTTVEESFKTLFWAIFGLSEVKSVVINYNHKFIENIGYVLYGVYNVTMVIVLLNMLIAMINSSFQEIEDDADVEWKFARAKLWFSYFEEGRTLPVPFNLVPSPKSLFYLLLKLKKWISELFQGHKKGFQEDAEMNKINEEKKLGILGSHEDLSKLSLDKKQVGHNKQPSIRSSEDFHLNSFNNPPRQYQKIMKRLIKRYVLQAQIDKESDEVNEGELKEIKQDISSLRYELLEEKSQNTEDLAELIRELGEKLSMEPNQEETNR
Test: Evaluation of TRPC6 channel inhibitory activity (2), HEK293 cells with stably introduced human TRPC6, OAG stimulation, FLIPR tetra (Compound Nos. 1293 to 1405)
Format: cell-based
Conditions: HEK293 cells with stably introduced human TRPC6, OAG 50 μM/0.5% DMSO, read-out: Inhibitory activity (pIC50 class) (converted)
Description: Evaluation of TRPC6 Channel Inhibitory Activity (2) (Compound Nos. 1293 to 1405)
The activity of the TRPC6 inhibitor was measured by stimulating HEK293 cells, in which human TRPC6 was stably introduced, with OAG (1-Oleoyl-2-acetyl-sn-glycerol, Miliipore Sigma, 06754), using the FLIPR tetra system. The cells were proliferated in a humid environment at 37° C. 5% CO2 using a growth medium (DMEM (Dulbecco's Modified Eagle's Medium) high glucose containing 10% fetal bovine serum, 1×PSGlu (penicillin-streptomycin glutamine), 1×NEAA (Non-essential amino acid), sodium pyruvate and 200 μg/mL hyglomycin. For cell subculture, the cells were proliferated to 70-90% confluence, and gently washed twice with PBS (phosphate-buffered saline) free of calcium and magnesium after removing the medium. Then, the cells were incubated at 37° C. for 5 minutes after adding trypsin (3 mL), peeled off by tapping the flask at the base of the hand, 7 mL of growth medium was added to inactivate trypsin, and then the cells were resuspended. Usually, the cells were separated every 2-3 days to become a cell density of ⅕. The day before evaluation, the cells were seeded in a poly-D-lysine (PDL) coated 384-well plate using a multi-channel pipette or multidrop at a cell density of 1.0-1.5×10^4 cells/25 μL/well. After culturing overnight in a PDL-coated 384 Blackwell plate, a fluorescent dye buffer was added first to the cells and the cells were cultured at room temperature for 90-120 minutes. For preparing 10 mL of fluorescent dye buffer, 9 mL of assay buffer, 1 mL of 10×PBX signal enhancer, and 10 μL of calcium indicator were mixed. Cells treated with the compounds of each level 25 minutes before the stimulation with OAG of TRPC6 agonist were incubated. OAG solution was prepared by adding OAG to assay buffer (Ca ringer solution base: 10 mM HEPES (4-(2-hydroxyethyl)-1-piperazine-ethanesulfonic acid), 4 mM MgCl2, 120 mM NaCl, 5 mM KCl, pH=7.2 (25° C.)+0.1% BSA+2 mM CaCl2)) to give an OAG concentration of 0.2 mM/2% DMSO. The final concentration of OAG added to the cells is 50 μM/0.5% DMSO. A volume of 12.5 μL of OAG solution was added, and activation of TRPC6 channel was measured using the FLIPR tetra system assaying the change in intracellular calcium level as an index. The 180 seconds imaging frame was defined as the background signal, and the subtraction of the background signal from the raw data was used as the fluorescence peak signal. Each fluorescence peak signal is standardized using an OAG-induced signal and buffer-induced signal as 100% and 0%, respectively. The inhibition rate obtained by plotting the peak signal after the addition of the compounds of each level was analyzed by a four-parameter logistic regression to quantify the inhibition rate in the logarithm of the inverse of the effective concentration which gives a 50% inhibition rate (pIC50). The intensity was expressed by the above-mentioned symbols (+, ++, +++).

Structure (SMILES)	IC50
Cn1nc(-c2ccccn2)cc1Oc1cc(Cl)ccc1-c1ncc([C@@H](O)CN)cn1 [compound 1357, (1R)-2-amino-1-[2-[4-chloro-2-(2-methyl-5-pyridin-2-ylpyrazol-3-yl)oxyphenyl]pyrimidin-5-yl]ethanol]	< 10 nM
Cn1nc(-c2ccccn2)cc1Oc1cc(C#N)ccc1-c1ncc([C@H](F)CN)cn1 [compound 1296, 4-[5-[(1S)-2-amino-1-fluoroethyl]pyrimidin-2-yl]-3-(2-methyl-5-pyridin-2-ylpyrazol-3-yl)oxybenzonitrile]	< 10 nM
Cc1nc(Oc2cc(C#N)ccc2-c2ncc([C@H](F)CN)cn2)cc(N2CCOCC2)n1 [compound 1403, 4-[5-[(1S)-2-amino-1-fluoroethyl]pyrimidin-2-yl]-3-(2-methyl-6-morpholin-4-ylpyrimidin-4-yl)oxybenzonitrile]	10 to 1000 nM
Cn1nc(-c2ccccn2)cc1Oc1cc(C#N)ccc1-c1ccc(CN)nn1 [compound 1326, 4-[6-(aminomethyl)pyridazin-3-yl]-3-(2-methyl-5-pyridin-2-ylpyrazol-3-yl)oxybenzonitrile]	10 to 1000 nM
Cc1cc(Oc2cc(Cl)cnc2-c2ccc([C@@H](F)CN)cn2)cc(N2CCOCC2)n1 [compound 1397, (2R)-2-[6-[5-chloro-3-(2-methyl-6-morpholin-4-ylpyridin-4 yl)oxypyridin-2-yl]pyridin-3-yl]-2-fluoroethanamine]	10 to 1000 nM
Cn1cc(-c2cc(Oc3cc(C#N)ccc3-c3ccc(CN)cn3)n(C)n2)cn1 [compound 1309, 4-[5-(aminomethyl)pyridin-2-yl]-3-[2-methyl-5-(1-methylpyrazol-4-yl)pyrazol-3-yl]oxybenzonitrile]	10 to 1000 nM
Cn1nc(-c2ccccn2)cc1Oc1cc(F)ccc1-c1ncc([C@H](F)CN)cn1 [compound 1335, (2S)-2-fluoro-2-[2-[4-fluoro-2-(2-methyl-5-pyridin-2-ylpyrazol-3-yl)oxyphenyl]pyrimidin-5-yl]ethanamine]	< 10 nM
Cc1nc(Oc2cc(Cl)ccc2-c2ncc([C@@H](O)CN)cn2)cc(N2CCOCC2)n1 [compound 1376, (1R)-2-amino-1-[2-[4-chloro-2-(2-methyl-6-morpholin-4-ylpyrimidin-4-yl)oxyphenyl]pyrimidin-5-yl]ethanol]	10 to 1000 nM
Cc1cc(Oc2cc(C#N)ccc2-c2ncc(CN)cn2)nc(N2CCOCC2)n1 [compound 1298, 4-[5-(aminomethyl)pyrimidin-2-yl]-3-(6-methyl-2-morpholin-4-ylpyrimidin-4-yl)oxybenzonitrile]	10 to 1000 nM
Cn1nc(-c2ccccn2)cc1Oc1cc(Cl)ccc1-c1ncc([C@@H](F)CN)cn1 [compound 1325, (2R)-2-[2-[4-chloro-2-(2-methyl-5-pyridin-2-ylpyrazol-3-yl)oxyphenyl]pyrimidin-5-yl]-2-fluoroethanamine]	< 10 nM
C[C@@H](N)c1ccc(-c2ccc(Cl)cc2Oc2cc(-c3ccccn3)nn2C)nc1 [compound 1380, (1R)-1-[6-[4-chloro-2-(2-methyl-5-pyridin-2-ylpyrazol-3-yl)oxyphenyl]pyridin-3-yl]ethanamine]	< 10 nM
Cc1cc(Oc2cc(C#N)ccc2-c2ncc(C(F)(F)CN)cn2)cc(N2CCOCC2)n1 [compound 1319, 4-[5-(2-amino-1,1-difluoroethyl)pyrimidin-2-yl]-3-(2-methyl-6-morpholin-4-ylpyridin-4-yl)oxybenzonitrile]	10 to 1000 nM
Cn1nc(-c2ccccn2)cc1Oc1cc(Cl)ccc1-c1ccc([C@H](F)CN)cn1 [compound 1338, (2S)-2-[6-[4-chloro-2-(2-methyl-5-pyridin-2-ylpyrazol-3-yl)oxyphenyl]pyridin-3-yl]-2-fluoroethanamine]	< 10 nM
Cc1cc(Oc2cc(Cl)ccc2-c2ncc([C@@H](F)CN)cn2)cc(N2CCOCC2)n1 [compound 1336, (2R)-2-[2-[4-chloro-2-(2-methyl-6-morpholin-4-ylpyridin-4-yl)oxyphenyl]pyrimidin-5-yl]-2-fluoroethanamine]	10 to 1000 nM
Cc1cc(Oc2cc(Cl)ccc2-c2ncc([C@@H](O)CN)cn2)cc(N2CCOCC2)n1 [compound 1350, (1R)-2-amino-1-[2-[4-chloro-2-(2-methyl-6-morpholin-4-ylpyridin-4-yl)oxyphenyl]pyrimidin-5-yl]ethanol]	< 10 nM

Results, then the compound that gave them:

IC50	Structure (SMILES)
10 to 1000 nM	Cn1nc(C2CCOCC2)cc1Oc1cc(Cl)ccc1-c1ncc([C@H](O)CN)cn1 [compound 1388, (1S)-2-amino-1-[2-[4-chloro-2-[2-methyl-5-(oxan-4-yl)pyrazol-3-yl]oxyphenyl]pyrimidin-5-yl]ethanol]
< 10 nM	Cn1nc(C2CC2)cc1Oc1cc(Cl)ccc1-c1ncc([C@@H](F)CN)cn1 [compound 1348, (2R)-2-[2-[4-chloro-2-(5-cyclopropyl-2-methylpyrazol-3-yl)oxyphenyl]pyrimidin-5-yl]-2-fluoroethanamine]
10 to 1000 nM	Cn1nc(C2CC2)cc1Oc1cc(Cl)ccc1-c1ncc([C@H](F)CN)cn1 [compound 1347, (2S)-2-[2-[4-chloro-2-(5-cyclopropyl-2-methylpyrazol-3-yl)oxyphenyl]pyrimidin-5-yl]-2-fluoroethanamine]
10 to 1000 nM	Cn1nc(C2CCOCC2)cc1Oc1cc(Cl)ccc1-c1ncc(CCN)cn1 [compound 1390, 2-[2-[4-chloro-2-[2-methyl-5-(oxan-4-yl)pyrazol-3-yl]oxyphenyl]pyrimidin-5-yl]ethanamine]
10 to 1000 nM	Cn1nc(C2CC2)cc1Oc1cc(F)ccc1-c1ncc([C@@H](O)CN)cn1 [compound 1384, (1R)-2-amino-1-[2-[2-(5-cyclopropyl-2-methylpyrazol-3-yl)oxy-4-fluorophenyl]pyrimidin-5-yl]ethanol]
< 10 nM	Cn1nc([C@H]2CCCO2)cc1Oc1cc(C#N)ccc1-c1ccc(CCN)cn1 [compound 1317]
10 to 1000 nM	Cc1cc(Oc2cc(Cl)ccc2-c2ncc(CN)cn2)cc(N2CCOCC2)n1 [compound 1315, [2-[4-chloro-2-(2-methyl-6-morpholin-4-ylpyridin-4-yl)oxyphenyl]pyrimidin-5-yl]methanamine]
< 10 nM	Cn1nc(C2CC2)cc1Oc1cc(Cl)cnc1-c1ccc([C@H](F)CN)cn1 [compound 1371, (2S)-2-[6-[5-chloro-3-(5-cyclopropyl-2-methylpyrazol-3-yl)oxypyridin-2-yl]pyridin-3-yl]-2-fluoroethanamine]
> 1000 nM	Cn1nc(C2CCOCC2)cc1Oc1cc(Cl)cnc1-c1ccc(C(F)(F)CN)cn1 [compound 1399, 2-[6-[5-chloro-3-[2-methyl-5-(oxan-4-yl)pyrazol-3-yl]oxypyridin-2-yl]pyridin-3-yl]-2,2-difluoroethanamine]
< 10 nM	Cn1nc(-c2ccccn2)cc1Oc1cc(Cl)ccc1-c1ncc(CCN)cn1 [compound 1322, 2-[2-[4-chloro-2-(2-methyl-5-pyridin-2-ylpyrazol-3-yl)oxyphenyl]pyrimidin-5-yl]ethanamine]
